Measurements from PubChem BioAssay (NCI).
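Five compound concentrations were applied to cells in 96-well plates for 48 hours; endpoints were derived by simple linear interpolation of the resulting dose-response curve. Here, GI50 denotes the concentration required for 50% inhibition of growth. TGI denotes the concentration required for complete inhibition of growth.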

Columns and labels:
Test in all cases: NCI anticancer screen, dose series, 48 h; in the data active = GI50 below about 0.43 µM; inactive = the rest
SR leukemia = tested on: SR leukemia
DU-145 prostate = tested on: DU-145 prostate
HCT-15 colon = tested on: HCT-15 colon
OVCAR-4 ovarian = tested on: OVCAR-4 ovarian
HL-60(TB) leukemia = tested on: HL-60(TB) leukemia
OVCAR-3 ovarian = tested on: OVCAR-3 ovarian
MOLT-4 leukemia = tested on: MOLT-4 leukemia
SNB-75 CNS = tested on: SNB-75 CNS
PC-3 prostate = tested on: PC-3 prostate
A549 NSCLC = tested on: A549 NSCLC
SF-295 CNS = tested on: SF-295 CNS
SW-620 colon = tested on: SW-620 colon
IGROV1 ovarian = tested on: IGROV1 ovarian
SF-268 CNS = tested on: SF-268 CNS
LOX IMVI melanoma = tested on: LOX IMVI melanoma
BT-549 breast = tested on: BT-549 breast
OVCAR-5 ovarian = tested on: OVCAR-5 ovarian
ACHN renal = tested on: ACHN renal
EKVX NSCLC = tested on: EKVX NSCLC
SNB-19 CNS = tested on: SNB-19 CNS
NCI-H23 lung = tested on: NCI-H23 lung
HCT-116 colon = tested on: HCT-116 colon
HT29 colon = tested on: HT29 colon
KM12 colon = tested on: KM12 colon
RPMI-8226 leukemia = tested on: RPMI-8226 leukemia
UACC-257 melanoma = tested on: UACC-257 melanoma
CCRF-CEM leukemia = tested on: CCRF-CEM leukemia
SK-MEL-2 melanoma = tested on: SK-MEL-2 melanoma
U251 CNS = tested on: U251 CNS
HOP-62 NSCLC = tested on: HOP-62 NSCLC
COLO 205 colon = tested on: COLO 205 colon
MDA-MB-231 breast = tested on: MDA-MB-231 breast
A498 renal = tested on: A498 renal
CAKI-1 renal = tested on: CAKI-1 renal
TK-10 renal = tested on: TK-10 renal
OVCAR-8 ovarian = tested on: OVCAR-8 ovarian
MDA-MB-435 = tested on: MDA-MB-435
M14 melanoma = tested on: M14 melanoma
HS 578T breast = tested on: HS 578T breast
HCC-2998 colon = tested on: HCC-2998 colon
SN12C renal = tested on: SN12C renal
HOP-92 NSCLC = tested on: HOP-92 NSCLC
UO-31 renal = tested on: UO-31 renal
UACC-62 melanoma = tested on: UACC-62 melanoma
MCF7 breast = tested on: MCF7 breast
786-0 renal = tested on: 786-0 renal
NCI-H226 lung = tested on: NCI-H226 lung
NCI/ADR-RES ovarian = tested on: NCI/ADR-RES ovarian
SK-MEL-28 melanoma = tested on: SK-MEL-28 melanoma
SK-MEL-5 melanoma = tested on: SK-MEL-5 melanoma
K-562 leukemia = tested on: K-562 leukemia
NCI-H522 lung = tested on: NCI-H522 lung
NCI-H460 lung = tested on: NCI-H460 lung
T-47D breast = tested on: T-47D breast
SF-539 CNS = tested on: SF-539 CNS
MALME-3M melanoma = tested on: MALME-3M melanoma

COc1ccc(/C=C(/C(=O)N2CCCCC2)c2cc(OC)c(OC)c(OC)c2)cc1
17.3 µM: TGI (DU-145 prostate)
inactive: GI50 (SR leukemia) 0.593 µM | GI50 (DU-145 prostate) 1.5 µM | GI50 (HCT-15 colon) 0.579 µM | GI50 (OVCAR-4 ovarian) 18 µM | GI50 (HL-60(TB) leukemia) 0.441 µM | GI50 (MOLT-4 leukemia) 2.06 µM | GI50 (SNB-75 CNS) 0.483 µM | GI50 (PC-3 prostate) 0.527 µM | GI50 (A549 NSCLC) 1.5 µM | GI50 (SW-620 colon) 0.506 µM | GI50 (IGROV1 ovarian) 0.699 µM | GI50 (SF-268 CNS) 1.79 µM | GI50 (LOX IMVI melanoma) 1.04 µM | GI50 (OVCAR-5 ovarian) 5.26 µM | GI50 (ACHN renal) 0.713 µM | GI50 (EKVX NSCLC) 3.4 µM | GI50 (SNB-19 CNS) 0.946 µM | GI50 (NCI-H23 lung) 3.88 µM | GI50 (KM12 colon) 0.482 µM | GI50 (RPMI-8226 leukemia) 4.13 µM | GI50 (UACC-257 melanoma) > 100 µM | GI50 (CCRF-CEM leukemia) 1.17 µM | GI50 (SK-MEL-2 melanoma) 0.967 µM | GI50 (U251 CNS) 1.48 µM | GI50 (HOP-62 NSCLC) 0.911 µM | GI50 (COLO 205 colon) 0.664 µM | GI50 (MDA-MB-231 breast) 4.54 µM | GI50 (A498 renal) 0.682 µM | GI50 (CAKI-1 renal) 0.492 µM | GI50 (TK-10 renal) > 100 µM | GI50 (OVCAR-8 ovarian) 6.12 µM | GI50 (M14 melanoma) 0.478 µM | GI50 (HS 578T breast) 0.966 µM | GI50 (HCC-2998 colon) 2.82 µM | GI50 (SN12C renal) 4.52 µM | GI50 (HOP-92 NSCLC) 12.4 µM | GI50 (UO-31 renal) 4.76 µM | GI50 (UACC-62 melanoma) 0.44 µM | GI50 (MCF7 breast) 0.454 µM | GI50 (NCI-H226 lung) 3.4 µM | GI50 (NCI/ADR-RES ovarian) 1.15 µM | GI50 (SK-MEL-28 melanoma) 8.89 µM | GI50 (SK-MEL-5 melanoma) 0.753 µM | GI50 (K-562 leukemia) 0.452 µM | GI50 (NCI-H522 lung) 1.7 µM | GI50 (NCI-H460 lung) 0.497 µM
43.9 µM: TGI (SK-MEL-5 melanoma)
0.935 µM: TGI (MDA-MB-435)
> 100 µM: TGI (SR leukemia) | TGI (HCT-15 colon) | TGI (OVCAR-4 ovarian) | TGI (MOLT-4 leukemia) | TGI (SNB-75 CNS) | TGI (PC-3 prostate) | TGI (A549 NSCLC) | TGI (SF-295 CNS) | TGI (SW-620 colon) | TGI (IGROV1 ovarian) | TGI (SF-268 CNS) | TGI (LOX IMVI melanoma) | TGI (OVCAR-5 ovarian) | TGI (ACHN renal) | TGI (EKVX NSCLC) | TGI (SNB-19 CNS) | TGI (NCI-H23 lung) | TGI (HCT-116 colon) | TGI (HT29 colon) | TGI (KM12 colon) | TGI (RPMI-8226 leukemia) | TGI (UACC-257 melanoma) | TGI (CCRF-CEM leukemia) | TGI (SK-MEL-2 melanoma) | TGI (U251 CNS) | TGI (HOP-62 NSCLC) | TGI (MDA-MB-231 breast) | TGI (CAKI-1 renal) | TGI (TK-10 renal) | TGI (OVCAR-8 ovarian) | TGI (M14 melanoma) | TGI (HS 578T breast) | TGI (HCC-2998 colon) | TGI (SN12C renal) | TGI (HOP-92 NSCLC) | TGI (UO-31 renal) | TGI (UACC-62 melanoma) | TGI (MCF7 breast) | TGI (786-0 renal) | TGI (NCI-H226 lung) | TGI (NCI/ADR-RES ovarian) | TGI (SK-MEL-28 melanoma) | TGI (K-562 leukemia) | TGI (NCI-H522 lung) | TGI (NCI-H460 lung)
active: GI50 (OVCAR-3 ovarian) 0.325 µM | GI50 (SF-295 CNS) 0.422 µM | GI50 (BT-549 breast) 0.417 µM | GI50 (HCT-116 colon) 0.379 µM | GI50 (HT29 colon) 0.412 µM | GI50 (MDA-MB-435) 0.257 µM | GI50 (786-0 renal) 0.404 µM
4.1 µM: TGI (HL-60(TB) leukemia)
4.9 µM: TGI (COLO 205 colon)
29.9 µM: TGI (BT-549 breast)
1.52 µM: TGI (OVCAR-3 ovarian)
71.7 µM: TGI (A498 renal)

CCOC(=O)C1C(c2ccc3c(c2)OCO3)c2c([nH][nH]c2=O)CC1(O)OCC (stereo not drawn)
> 100 µM: TGI (SR leukemia) | TGI (DU-145 prostate) | TGI (HCT-15 colon) | TGI (OVCAR-4 ovarian) | TGI (HL-60(TB) leukemia) | TGI (OVCAR-3 ovarian) | TGI (MOLT-4 leukemia) | TGI (SNB-75 CNS) | TGI (PC-3 prostate) | TGI (A549 NSCLC) | TGI (SF-295 CNS) | TGI (SW-620 colon) | TGI (IGROV1 ovarian) | TGI (T-47D breast) | TGI (SF-268 CNS) | TGI (LOX IMVI melanoma) | TGI (OVCAR-5 ovarian) | TGI (ACHN renal) | TGI (SF-539 CNS) | TGI (EKVX NSCLC) | TGI (NCI-H23 lung) | TGI (HCT-116 colon) | TGI (HT29 colon) | TGI (KM12 colon) | TGI (RPMI-8226 leukemia) | TGI (UACC-257 melanoma) | TGI (CCRF-CEM leukemia) | TGI (SK-MEL-2 melanoma) | TGI (U251 CNS) | TGI (HOP-62 NSCLC) | TGI (COLO 205 colon) | TGI (MDA-MB-231 breast) | TGI (A498 renal) | TGI (CAKI-1 renal) | TGI (TK-10 renal) | TGI (OVCAR-8 ovarian) | TGI (MDA-MB-435) | TGI (M14 melanoma) | TGI (HS 578T breast) | TGI (HCC-2998 colon) | TGI (SN12C renal) | TGI (HOP-92 NSCLC) | TGI (UO-31 renal) | TGI (MALME-3M melanoma) | TGI (UACC-62 melanoma) | TGI (MCF7 breast) | TGI (786-0 renal) | TGI (NCI/ADR-RES ovarian) | TGI (SK-MEL-28 melanoma) | TGI (SK-MEL-5 melanoma) | TGI (NCI-H522 lung) | TGI (NCI-H460 lung)
